Like-named read-outs stand apart in the source and are kept apart here.
Key:
[1] = test system: Key Grass and Sedge Weeds as well as Grass Crops; assay: Post-Emergent Test II: postemergent herbicidal activity, visual rating after 14 d (Table 8); format: in vivo; conditions: post-emergence, 336 h; for pest or weed control at 35 g/ha: 35 g ai/ha; for pest or weed control at 70 g/ha: 70 g ai/ha; for pest or weed control at 140 g/ha: 140 g ai/ha
Description: (§1) Herbicidal evaluations were made visually on a scale of 0 to 100 where 0 represents no activity and 100 represents complete plant death.
(§2) Seeds or nutlets of the desired test plant species were planted in Sun Gro Metro-Mix® 360 planting mixture, which typically has a pH of 6.0 to 6.8 and an organic matter content of about 30 percent, in plastic pots with a surface area of 64 square centimeters (cm^2). When required to ensure good germination and healthy plants, a fungicide treatment and/or other chemical or physical treatment was applied. The plants were grown for 7-21 d in a greenhouse with an approximate 15 h photoperiod which was maintained at about 23-29° C. during the day and 22-28° C. during the night. Nutrients and water were added on a regular basis and supplemental lighting was provided with overhead metal halide 1000-Watt lamps as necessary. The plants were employed for testing when they reached the first or second true leaf stage.
(§3) A weighed amount, determined by the highest rate to be tested, of each test compound was placed in a 25 mL glass vial and was dissolved in 4 mL of a 97:3 v/v mixture of acetone and DMSO to obtain concentrated stock solutions. […] The concentrated stock solutions obtained were diluted with 20 mL of an aqueous mixture containing acetone, water, isopropyl alcohol, DMSO, Atplus 411F crop oil concentrate, and Triton® X-155 surfactant in a 48.5:39:10:1.5:1.0:0.02 v/v ratio to obtain spray solutions containing the highest application rates. Additional application rates were obtained by serial dilution of 12 mL of the high rate solution into a solution containing 2 mL of a 97:3 v/v mixture of acetone and DMSO and 10 mL of an aqueous mixture containing acetone, water, isopropyl alcohol, DMSO, Atplus 411F crop oil concentrate, and Triton X-155 surfactant in a 48.5:39:10:1.5:1.0:0.02 v/v ratio to obtain ½×, ¼×, ⅛× and 1/16× rates of the high rate. Compound requirements are based upon a 12 mL application volume at a rate of 187 liters per hectare (L/ha). Formulated compounds were applied to the plant material with an overhead Mandel track sprayer equipped with 8002E nozzles calibrated to deliver 187 L/ha over an application area of 0.503 square meters at a spray height of 18 inches (43 cm) above the average plant canopy height. Control plants were sprayed in the same manner with the solvent blank.
(§4) The treated plants and control plants were placed in a greenhouse as described above and watered by subirrigation to prevent wash-off of the test compounds. After 14 d, the condition of the test plants as compared with that of the untreated plants was determined visually and scored on a scale of 0 to 100 percent where 0 corresponds to no injury and 100 corresponds to complete kill and are presented as indicated in Table 4.

[2] = test system: Key Broadleaf Weed and Crop Species; assay: Post-Emergent Test II: postemergent herbicidal activity, visual rating after 14 d (Table 7); format: in vivo; conditions: post-emergence, 336 h; for pest or weed control at 35 g/ha: 35 g ai/ha; for pest or weed control at 70 g/ha: 70 g ai/ha; for pest or weed control at 140 g/ha: 140 g ai/ha
Description: as §1, §2, §3, §4

[3] = barnyardgrass (Echinochloa crus-galli), read-out: Visual Growth Reduction (%) 14 Days After Application ECHCG
[4] = giant foxtail (Setaria faberi), read-out: Visual Growth Reduction (%) 14 Days After Application SETFA
[5] = rice (Oryza sativa), read-out: Visual Growth Reduction (%) 14 Days After Application ORYSA
[6] = wheat, spring (Triticum aestivum), read-out: Visual Growth Reduction (%) 14 Days After Application TRZAS
[7] = yellow nutsedge (Cyperus esculentus), read-out: Visual Growth Reduction (%) 14 Days After Application CYPES
[8] = lambsquarters (Chenopodium album), read-out: Visual Growth Reduction (%) 14 Days After Application CHEAL
[9] = oilseed rape, canola (Brassica napus), read-out: Visual Growth Reduction (%) 14 Days After Application BRSNN
[10] = redroot pigweed (Amaranthus retroflexus), read-out: Visual Growth Reduction (%) 14 Days After Application AMARE
[11] = sunflower (Helianthus annuus), read-out: Visual Growth Reduction (%) 14 Days After Application HELAN
[12] = velvetleaf (Abutilon theophrasti), read-out: Visual Growth Reduction (%) 14 Days After Application ABUTH
[13] = wild poinsettia (Euphorbia heterophylla), read-out: Visual Growth Reduction (%) 14 Days After Application EPHHL

SMILES	pest or weed control at 35 g/ha [1, 3]	pest or weed control at 70 g/ha [1, 3]	pest or weed control at 140 g/ha [1, 3]	pest or weed control at 35 g/ha [1, 4]	pest or weed control at 70 g/ha [1, 4]	pest or weed control at 140 g/ha [1, 4]	pest or weed control at 35 g/ha [1, 5]	pest or weed control at 70 g/ha [1, 5]	pest or weed control at 140 g/ha [1, 5]	pest or weed control at 35 g/ha [1, 6]	pest or weed control at 70 g/ha [1, 6]	pest or weed control at 140 g/ha [1, 6]	pest or weed control at 35 g/ha [1, 7]	pest or weed control at 70 g/ha [1, 7]	pest or weed control at 140 g/ha [1, 7]	pest or weed control at 35 g/ha [2, 8]	pest or weed control at 70 g/ha [2, 8]	pest or weed control at 140 g/ha [2, 8]	pest or weed control at 35 g/ha [2, 9]	pest or weed control at 70 g/ha [2, 9]	further results
Nc1nc(-c2ccc3c(c2)OC(F)(F)O3)nc(C(=O)O)c1Cl [Compound 61]	85 to 94%	85 to 94%	85 to 94%	60 to 74%	75 to 84%	85 to 94%	0 to 29%	45 to 59%	60 to 74%	60 to 74%	75 to 84%	75 to 84%	0 to 29%	0 to 29%	45 to 59%	60 to 74%	60 to 74%	75 to 84%	60 to 74%	85 to 94%	pest or weed control at 140 g/ha [2, 9]: 75 to 84%; pest or weed control at 35 g/ha [2, 10]: 0 to 29%; pest or weed control at 70 g/ha [2, 10]: 30 to 44%; pest or weed control at 140 g/ha [2, 10]: 30 to 44%; pest or weed control at 35 g/ha [2, 11]: 60 to 74%; pest or weed control at 70 g/ha [2, 11]: 60 to 74%; pest or weed control at 140 g/ha [2, 11]: 75 to 84%; pest or weed control at 35 g/ha [2, 12]: 45 to 59%; pest or weed control at 70 g/ha [2, 12]: 60 to 74%; pest or weed control at 140 g/ha [2, 12]: 60 to 74%; pest or weed control at 35 g/ha [2, 13]: 85 to 94%; pest or weed control at 70 g/ha [2, 13]: 95 to 100%; pest or weed control at 140 g/ha [2, 13]: 95 to 100%
COC(=O)c1nc(-c2ccc(Cl)c3c2OC(F)(F)O3)c(Cl)c(N)c1Cl [Compound 70]	0 to 29%	0 to 29%	0 to 29%	0 to 29%	0 to 29%	0 to 29%	0 to 29%	0 to 29%	0 to 29%	0 to 29%	0 to 29%	0 to 29%	0 to 29%	0 to 29%	0 to 29%	75 to 84%	85 to 94%	95 to 100%	60 to 74%	60 to 74%	pest or weed control at 140 g/ha [2, 9]: 75 to 84%; pest or weed control at 35 g/ha [2, 10]: 95 to 100%; pest or weed control at 70 g/ha [2, 10]: 95 to 100%; pest or weed control at 140 g/ha [2, 10]: 95 to 100%; pest or weed control at 35 g/ha [2, 11]: 85 to 94%; pest or weed control at 70 g/ha [2, 11]: 95 to 100%; pest or weed control at 140 g/ha [2, 11]: 95 to 100%; pest or weed control at 35 g/ha [2, 12]: 45 to 59%; pest or weed control at 70 g/ha [2, 12]: 75 to 84%; pest or weed control at 140 g/ha [2, 12]: 75 to 84%; pest or weed control at 35 g/ha [2, 13]: 0 to 29%; pest or weed control at 70 g/ha [2, 13]: 0 to 29%; pest or weed control at 140 g/ha [2, 13]: 0 to 29%

Reference: US9149038B2, “4-amino-6-(heterocyclic)picolinates and 6-amino-2-(heterocyclic)pyrimidine-4-carboxylates and their use as herbicides” (Dow AgroSciences LLC, priority 2013, dated 2015)
